This note sets out measurements from patent EP0298890A2, “New 2-(P-isobutylphenyl)-propionic acid ester and process for the preparation thereof” (Sune Coma, Nuria, priority 1987, dated 1989).

The test system of series [1] is rat. The experiment in a line: carrageenin test p.o. in the rat (antiinflammatory effect). Format: in vivo. To be noted: comparison of ED₅₀ values.
Series [2] relates to rat. Nature of the series: phenylbenzoquinone test p.o. in the rat (analgesic effect). The conditions noted are these: comparison of ED₅₀ values. Format: in vivo.
The nature of series [3]: solubility in water. Format: physicochemical. The conditions noted are these: qualitative statement, no method given.

The structures appear in SMILES notation.

As to `CC(C)Cc1ccc(C(C)C(=O)OCCN(C)C)cc1` (stereo not drawn) [I, N,N-dimethylaminoethanol 2-(p-isobutylphenyl)-propionate], the “antiinflammatory activity compared with the formula II compound” value in series [1] was “same antiinflammatory activity”. For the same compound, the “analgesic activity compared with the formula II compound” value in series [2] is “twice as active as an analgesic”. In addition, the “solubility in water compared with the formula II acid” value in series [3] is on record as “more soluble in water”.
